The text below walks through data of US9220746B2, “Compounds and methods for treating bone disorders and controlling weight” (The University of North Carolina at Chapel Hill, priority 2009, dated 2015).

“Also recorded” adds a separate entry of the source.

For one experiment, the system named is Igfbp2−/− COBs and BMSCs. The experiment in a line: In vitro osteoblastogenesis of calvarial osteoblasts and bone marrow stromal cells (ALP, Alizarin Red staining). It is filed as cell-based, mouse. As to the method: FIG. 1. The heparin-binding domain of IGFBP2 enhances osteoblastogenesis in vitro. a. Von Kossa staining was performed using tibia from 8 weeks old Igfbp2^+/+ and Igfbp2^−/− male mouse. b. Calvarial osteoblasts (COBs) were harvested from day 7 old male Igfbp2^+/+ and Igfbp2^−/− male mouse, and treated with osteogenic media in the presence of 2.5% FCS. At day 7, alkaline phosphatase (ALP) staining was performed. c and d. COBs and Bone marrow stromal cells (BMSCs) from Igfbp2^−/− mouse were treated with osteogenic media with pegylated heparin-binding domain peptide (PEG-HBD) in the presence of 10% FCS. ALP staining (day 7) and Alizarin Red staining (day 14) were performed (c). RNA was isolated at day 14 from BMSCs and expression of ALP, osteocalcin (OC) and Runx2 was analyzed by real-time PCR. Figures shown represent at least 3 independent experiments (n=3). Statistical difference was analyzed by student's t test. *; p<0.05.
FIG. 7. […] Igfbp2^−/− calvarial osteoblasts (COBs) were cultured with osteogenic media with PBS, control peptide (2 μg/ml) or heparin binding domain peptide (HBD-peptide) (2 μg/ml). Osteoblastogenesis was evaluated by Alizarin Red staining.
Neonatal calvarial osteoblasts were collected from 7-10 day old mice as previously described^53. Briefly, calvariae were digested 5 times with collagenase P and Trypsin. Cells released from digests 2 through 5 were collected as primary calvarial osteoblasts, and maintained in DMEM supplemented with 10% FCS and non-essential amino acids. Osteoblastogenesis of primary calvarial osteoblasts was carried out by treating cells with 4 mM β-glycerophosphate and 50 μg/ml ascorbic acid in αMEM. Bone marrow stromal cells (BMSCs) were harvested from femurs and tibias of 8 weeks old mice as described previously^10. Osteoblastogenesis of BMSCs was induced by the treatment with osteogenic media consisting of αMEM containing 10% FCS, 8 mM β-glycerophosphate, and 50 μg/ml ascorbic acid.

For another experiment, the system named is metacarpals. The experiment in a line: Metacarpal culture ex vivo (calcein incorporated area, length, width). It is filed as cell-based, mouse. The protocol:
FIG. 2. The heparin binding domain of IGFBP2 enhances periosteal expansion of metacarpals ex vivo. Metacarpals were collected from day 1 male mouse, and treated with osteogenic media with IGFBP2 (200 ng/ml) or the heparin-binding domain peptide (HBD-peptide) (2 μg/ml) in the presence or absence of IGF-1 (20 ng/ml) for 10 days. Bones were labeled with calcein (500 ng/ml) and calcein incorporated area was visualized (a) and longitudinal length of calcein incorporated area was quantified (b). Alcian blue and Von Kossa double staining was performed (c) and length and width of metacarpals were quantified (d). Statistical difference was analyzed by ANOVA followed by Bonferroni post-hoc test. Figures shown represent at least 3 independent experiments. Values are expressed as the mean±SEM (n=3-4). ^a; <0.05 vs PBS, ^b; <0.01 vs PBS, ^c; <0.001 vs PBS, ^d; <0.01 vs HBD, ^e; <0.05 vs IGF-I, ^f; <0.05 vs HBD.
Metacarpals were isolated from Igfbp2^−/− mice at 1-day old and incubated in DMEM containing 0.5% BSA, 50 μg/ml ascorbic acid and 1 mM β-glycerol phosphate for 10 days^54. Stimulants were added to culture media from day 1. At day 10, metacarpals were incubated in media containing calcein (500 ng/ml) for 2 hours for staining of calcium deposition, and images were obtained. Then, bones were fixed with 4% PFA, embedded in paraffin, and processed for Alcian blue and von Kossa double staining.

In a further experiment the test system is BP2−/− mice. The experiment can be described thus: Flow cytometry of white blood cell populations in peripheral blood. The class given is in vivo, mouse. The following applies: BP2−/− male mice, intraperitoneal injection, vs PBS injected controls. Background: In flow cytometry, cells or beads pass a laser one at a time.
For experiment [1], the system named is IGFBP-2 knockout mice. The experiment can be described thus: Body weight and fat mass of IGFBP-2 knockout mice given the heparin binding peptide. The class given is in vivo, mouse. The settings on record: IGFBP-2 −/− mice, 50 mcg intraperitoneally three days per week, 6 week treatment; for Fat Mass: by MRI. As to the method:
Further experiments have been carried out in which the knockout mice and control animals have been administered the mouse homologue of the heparin binding peptide. The peptide was administered to 8 animals in each group. The knockout animals weighed 30.4±1.5 gm whereas the control animals weighed 25.2±1.1 gm. The knockout animals that received the active peptide weighed 24.9±1.3 gm. […] More importantly when absolute fat mass was analyzed by MRI, highly significant differences were also present. The knockout mice had 6.21±0.76 grams of fat. The control mice had 3.82±0.67 grams and the knockout mice administered the heparin binding peptide had 3.67±0.36 grams. Again these are highly significant differences.

A further experiment has as its system Igfbp2−/− mice. The experiment in a line: MicroCT of femurs and vertebrae (L5) after in vivo treatment of Igfbp2−/− mice. More on the design: species or system mouse. The following applies: in vivo administration, summary statement. The protocol: Igfbp2^+/+ and Igfbp2^−/− mice were administered with PBS or PEG-HBD-peptide (50 μg/day) intraperitoneally 5 times per week from 6 to 9 weeks of age. Dual-energy x-ray absorptiometry was performed before the initiation of treatment. Mice were injected with 20 mg/kg calcein intraperitoneally 7 days and 2 days before sample collection.
Microarchitecture of distal trabecular bone and midshaft cortical bone was analyzed with femurs and vertebrae (L5) by MicroCT (MicroCT40)^10. Approximately 100 slices were measured just proximal to the distal growth plate, with an isotropic pixel size of 12 μm and slice thickness of 12 μm. Midshaft cortical bone thickness was analysis in a similar fashion using approximately 18 slices obtained at the exact midpoint of the femur.

Experiment [2] concerns IGFBP-2 knockout mice. The experiment can be described thus: Glucose tolerance test in IGFBP-2 knockout mice. The class given is in vivo, mouse. The following applies: knockout animals with impaired glucose tolerance; not significantly different from control mice.
The mark [3] stands for this setting: listed as heparin binding peptide.

For “KHLSLEEPKKLRP (IGFBP-2 heparin binding domain-containing peptide sequence) [HBD-peptide]”, the “mineralization of Igfbp2−/− COBs (Alizarin Red) compared to PBS” value with Igfbp2−/− COBs and BMSCs (2 μg/ml, osteogenic media) is “fully active”. The “cell proliferation of osteoblasts and bone marrow stromal cells (alkaline phosphatase, alizarin red staining)” value with Igfbp2−/− COBs and BMSCs (compared to full length (FL) IGFBP-2 and control peptide) is reported as “increased cell proliferation”. Moreover, the “bone mineralization phenotype of Igfbp2−/− bone marrow stromal cells and calvarial osteoblasts” value in the experiment with Igfbp2−/− COBs and BMSCs (in vitro, summary statement) was “rescued the low bone mineralization phenotype”. The “calcein incorporated area of metacarpals” value with metacarpals (10 days, IGFBP2 200 ng/ml, peptides 2 μg/ml, IGF-1 20 ng/ml, vs PBS) was “significantly enhanced”. In addition, in the experiment with metacarpals (10 days, IGFBP2 200 ng/ml, peptides 2 μg/ml, vs PBS), the “width (and length) of metacarpals” value is given as “increased the width of metacarpals”. Besides, in the experiment with metacarpals (ex vivo, summary statement), the “periosteal expansion and growth of Igfbp2−/− metacarpal explants” value was “stimulated periosteal expansion and growth”. The “percentages of differentiated lymphoid and myeloid cells (monocytes, macrophages, neutrophils) in peripheral blood” value in the experiment on BP2−/− mice (listed as HBD) was “suppressed the percentages of mature monocytes, macrophages and neutrophils; also recorded: reduced the number of differentiated lymphoid and myeloid cells”; in the experiment with BP2−/− mice (listed as IGFBP-2 heparin binding domain (HBD) peptide), “reduced the percentage of macrophages”. In addition, the entries for the “Fat Mass” value in the experiment with IGFBP-2 knockout mice [1] (listed as HBD) and in the experiment with IGFBP-2 knockout mice [1] (setting [3]) were 3.67 ± 0.36 gms and 3.67±0.36 gms, respectively. The “Body Weight” value was 24.9 ± 1.3 gms with IGFBP-2 knockout mice [1] (listed as HBD) and 24.9±1.3 gms in the experiment with IGFBP-2 knockout mice [1] (setting [3]). Also, the “bone mass phenotype of Igfbp2−/− mice (trabecular bone mass, osteoblast number)” value in the experiment on Igfbp2−/− mice is “rescued the low bone mass phenotype”; in the experiment on Igfbp2−/− mice (listed as HBD), “trabecular bone mass was rescued and osteoblast number increased”. For the same sequence, in the experiment on IGFBP-2 knockout mice [2], the glucose tolerance result is “significantly improved”.
